Assay [1] addresses thrombospondin binding to heparin. Put plainly: Inhibition of 125I-thrombospondin binding to immobilized heparin-BSA. Set-up: species or system human. The following applies: for inhibition of thrombospondin binding to heparin, in words: free peptide. As for the experimental part:
(§1) The peptides were tested as inhibitors of laminin, thrombospondin or apolipoprotein E binding to a heparin-bovine serum albumen conjugate or to a sulfatide in a solid phase assay essentially following the procedure described in Zabrenetzky et al., Cancer Res., Vol. 50, pages 5937-5942 (1990). Sulfatide (0.2 μg/well for thrombospondin binding, 0.6 μg/well for laminin binding) was immobilized in a mixture of 50 ng of phosphatidyl choline, and 30 ng of cholesterol on polyvinyl chloride microtiter plates. Heparin-BSA (0.2 μg/well) was absorbed onto polyvinyl chloride microtiter plate wells by incubation of 50 μl of Dulbecco's PBS for 2 h at 37°. The wells were emptied and filled with 50 mM tris, pH 7.8 containing 150 mM NaCl, 1 mM CaCl2, 0.025% NaN3, and 1% BSA. After 30 minutes, the wells were emptied and 30 μl of various concentrations of potential inhibitory peptides diluted in the same buffer or buffer alone and 30 μl of ^125 I-labeled laminin, thrombospondin or apolipoprotein E (0.2 μg/ml) were added to each well. After 3 hours at 4°, the wells were washed 6 times with 0.15M NaCl, cut from the plate and the bound radioactivity counted. FIGS. 1A-B and 2A-B show the level of thrombospondin binding to sulfatide and heparin-BSA, respectively, in the presence of increasing concetrations of the peptides listed. FIGS. 3 and 4A-B show the level of laminin binding to sulfatide and heparin-BSA, respectively, in the presence of increasing concentrations of the listed peptides.
Microtiter plate wells were coated with heparin-BSA. Heparin-BSA (0.2 μg/well) was adsorbed by incubation in 50 μl of Dulbecco's PBS for 2 h at 370. The wells were emptied, filled with tris-BSA, and incubated for 30 to 60 minutes. The buffer was removed, and labelled thrombospondin was added and incubated in the wells for 3 h at 40. The wells were emptied and washed 4 times with saline. The bottoms of the wells were cut from the plate and counted to quantify thrombospondin binding. Inhibition of thrombospondin binding was determined using peptides diluted in 30 μl of 50 mM tris buffer, pH 7.8, containing 110 mM NaCl, 1 mM CaCl2, 0.025% NaN3, and 1% BSA or buffer alone and 30 μl of ^125 I-labeled TSP (0.2 μg/ml).

In assay [2] the target is thrombospondin binding to sulfatide. The assay can be described thus: Inhibition of 125I-thrombospondin binding to sulfatide. Also noted: species or system human. The settings on record: for IC50: Table 1, free peptide. As for the experimental part: as §1
Assay [3] has as its target laminin binding to heparin. Put plainly: Inhibition of 125I-laminin binding to heparin-BSA. Also noted: species or system mouse. The settings on record: Table 2, free peptide. As for the experimental part: as §1
For assay [4], the target named is laminin binding to sulfatide. The assay can be described thus: Inhibition of 125I-laminin binding to sulfatide. The following applies: Table 2, free peptide. Set-up: species or system mouse. The method, then:
as §1

Assay [5] concerns the target basic fibroblast growth factor (FGF-2) binding to heparin. The assay can be described thus: Inhibition of 125I-bFGF binding to heparin-BSA conjugate. The following applies: retro-inverso peptides; read-out: IC50 for Inhibition of Binding. The method, then:
Binding of ^125 I-bFGF to heparin was determined using an immobilized heparin-BSA conjugate as previously described (Guo, et al. (1992) Proc. Nat'l Acad. Sci. 89:3040-3044). ^125 I-bFGF, prepared as described by Neufeld, et al, (1985), J. Biol. Chem. 260:13860-13868, was added described above, and incubated for 2 hours at 25° C. Bound radioactivity was determined after washing and cutting the wells from the plate. FIGS. 40A, B and C show the inhibition of ^125 I-bFGF binding to heparin by a number of TSP peptide analogs.

The mark [6] stands for this setting: Table 1, free peptide, read-out: IC50 Heparin Binding, inhibition of 125I-thrombospondin binding.
The mark [7] stands for this setting: retro-inverso peptides, free, read-out: IC50 Inhibitory Activity, Free Peptide.

The structures appear in SMILES notation. Like-named read-outs stand apart in the source and are kept apart here. Square brackets hold non-standard residues; d marks the D form. Peptide text beside a SMILES is read from it. Ava = NCCCCC(=O)O; Mpa = O=C(O)CCS A value given as a limit tells only on which side of the number the result lay.

As a reminder, the IC50 is the concentration needed to halve the response being measured. Turning to `CC(C)[C@H](NC(=O)[C@H](CO)NC(=O)[C@H](C)N)C(=O)N[C@H](C(=O)O)[C@@H](C)O` [Peptide 236, ASVT] (H-ASVT-OH), the IC50 in assay [1] (setting [6]), in assay [2], in assay [3] and in assay [4] was above 200 µM each time.

Consider `CC[C@H](C)[C@H](NC(=O)CNC(=O)[C@H](CC(N)=O)NC(=O)CNC(=O)[C@H](CS)NC(=O)[C@H](CO)NC(=O)[C@@H](N)[C@@H](C)O)C(=O)N[C@@H](CCC(N)=O)C(=O)N[C@@H](CCC(N)=O)C(=O)N[C@@H](CCCNC(=N)N)C(=O)O` [Peptide 206, TSCGNGIQQR] (H-TSCGNGIQQR-OH), for which the IC50 in assay [1] (setting [6]), in assay [2], in assay [3] and in assay [4] was above 200 µM in each case.

On to `CC(C)[C@H](NC(=O)[C@H](CO)NC(=O)[C@@H](N)CO)C(=O)N[C@H](C(=O)O)[C@@H](C)O` [Peptide 235, SSVT] (H-SSVT-OH), for which the IC50 in assay [1] (setting [6]), in assay [2], in assay [3] and in assay [4] was above 200 µM in each case.

For the molecule `CC(=O)N[C@H](C)C(=O)N[C@H](C)C(=O)N[C@H](Cc1c[nH]c2ccccc12)C(=O)N[C@H](Cc1c[nH]cn1)C(=O)N[C@H](CO)C(=O)N[C@H](Cc1c[nH]c2ccccc12)C(=O)NCC(=O)N[C@H](C)C(=O)N[C@H](CCC(N)=O)C(=O)N[C@H](CCCCN)C(=O)N[C@H](C)C(=O)N[C@H](CCCCN)C(=O)N[C@H](CCCCN)C(N)=O` [Peptide 537, ri-amKKAKQAGWSHWAAac] (Ac-[dA][dA][dW][dH][dS][dW]G[dA][dQ][dK][dA][dK][dK]-NH2), the IC50 in assay [5] came out at 0.1 µM.

Turning to `C[C@@H](NC(=O)CCS)C(=O)N[C@H](C)C(=O)N[C@H](CO)C(=O)N[C@H](Cc1c[nH]c2ccccc12)C(=O)N[C@H](Cc1c[nH]cn1)C(=O)N[C@H](CO)C(=O)N[C@H](Cc1c[nH]c2ccccc12)C(=O)NCC(=O)N[C@H](C)C(=O)N[C@H](CCC(N)=O)C(=O)N[C@H](CCCCN)C(=O)N[C@H](C)C(=O)N[C@H](CCCNC(=N)N)C(=O)N[C@H](CCCCN)C(N)=O` [Peptide 525, ri-amKRAKQAGWSHWSAAtc] ([Mpa][dA][dA][dS][dW][dH][dS][dW]G[dA][dQ][dK][dA][dR][dK]-NH2), the IC50 is 0.035 µM in assay [1] (setting [7]) and 0.28 µM in assay [5].

On to `CC(C)[C@H](NC(=O)[C@H](CO)NC(=O)[C@H](CS)NC(=O)[C@H](CO)NC(=O)[C@@H](N)CO)C(=O)N[C@H](C(=O)O)[C@@H](C)O` [Peptide 238, SSCSVT] (H-SSCSVT-OH), for which the IC50 is 85 µM in assay [1] (setting [6]), above 100 µM in assay [2], above 200 µM in assay [3] and above 200 µM in assay [4]. Also, the “inhibition of thrombospondin binding to heparin, in words” value (“inhibition of thrombospondin binding” for short) in assay [1] is given as “weak inhibition of thrombospondin binding”.

Take `CC(=O)N[C@H](C)C(=O)N[C@H](C)C(=O)N[C@H](Cc1c[nH]c2ccccc12)C(=O)N[C@H](Cc1c[nH]cn1)C(=O)N[C@H](CO)C(=O)N[C@H](Cc1c[nH]c2ccccc12)C(=O)NCC(=O)N[C@H](C)C(=O)N[C@H](CCC(N)=O)C(=O)N[C@H](CCCCN)C(=O)N[C@H](Cc1ccccc1)C(=O)N[C@H](CCCNC(=N)N)C(=O)N[C@H](CCCCN)C(N)=O` [Peptide 530, ri-amKRFKQAGWSHWAAac] (Ac-[dA][dA][dW][dH][dS][dW]G[dA][dQ][dK][dF][dR][dK]-NH2): the IC50 in assay [5] worked out at 0.65 µM.

As for `CC(C)[C@H](N)C(=O)N[C@H](C(=O)N[C@@H](CS)C(=O)NCC(=O)NCC(=O)NCC(=O)N[C@H](C(=O)N[C@@H](CCC(N)=O)C(=O)N[C@@H](CCCCN)C(=O)N[C@@H](CCCNC(=N)N)C(=O)O)C(C)C)[C@@H](C)O` [Peptide 204, VTCGGGVQKR] (H-VTCGGGVQKR-OH), the IC50 in assay [1] (setting [6]), in assay [2], in assay [3] and in assay [4] was above 200 µM in each case.

In the case of `CC(=O)N[C@H](C)C(=O)N[C@H](C)C(=O)N[C@H](Cc1c[nH]c2ccccc12)C(=O)N[C@H](Cc1c[nH]cn1)C(=O)N[C@H](CO)C(=O)N[C@H](Cc1c[nH]c2ccccc12)C(=O)NCC(=O)N[C@H](C)C(=O)N[C@H](CCC(N)=O)C(=O)N[C@H](CCCCN)C(=O)N[C@H](C)C(=O)N[C@H](CCCNC(=N)N)C(=O)N[C@H](CCCCN)C(N)=O` [Peptide 529, ri-amKRAKQAGWSHWAAac] (Ac-[dA][dA][dW][dH][dS][dW]G[dA][dQ][dK][dA][dR][dK]-NH2), in assay [5], the IC50 turned out to be 0.37 µM.

`CC(C)[C@H](N)C(=O)N[C@H](C(=O)N[C@@H](CS)C(=O)NCC(=O)O)[C@@H](C)O` [Peptide 203, VTCG] (H-VTCG-OH): the IC50 in assay [1] (setting [6]), in assay [2], in assay [3] and in assay [4] was above 200 µM in each case. The “inhibition of thrombospondin binding” value in assay [1] is “inactive”.

For `CC(=O)N[C@H](C)C(=O)N[C@H](C)C(=O)N[C@H](Cc1c[nH]c2ccccc12)C(=O)N[C@H](Cc1c[nH]cn1)C(=O)N[C@H](CO)C(=O)N[C@H](Cc1c[nH]c2ccccc12)C(=O)NCC(=O)N[C@H](C)C(=O)N[C@H](CCC(N)=O)C(=O)N[C@H](CCCNC(=N)N)C(=O)N[C@H](C)C(=O)N[C@H](CCCNC(=N)N)C(=O)N[C@H](CCCCN)C(N)=O` [Peptide 536, ri-amKRARQAGWSHWAAac] (Ac-[dA][dA][dW][dH][dS][dW]G[dA][dQ][dR][dA][dR][dK]-NH2), the IC50 in assay [5] turned out to be 0.95 µM.

Turning to `CC(C)C[C@H](NC(=O)[C@H](CCCNC(=N)N)NC(=O)[C@H](CO)NC(=O)[C@H](CCCNC(=N)N)NC(=O)[C@H](CCCCN)NC(=O)[C@H](CCC(N)=O)NC(=O)[C@@H](NC(=O)CNC(=O)CNC(=O)CNC(=O)[C@H](CS)NC(=O)[C@@H](NC(=O)[C@@H](N)C(C)C)[C@@H](C)O)C(C)C)C(=O)O` [Peptide 245, VTCGGGVQKRSRL] (H-VTCGGGVQKRSRL-OH), the IC50 in assay [1] (setting [6]) is above 200 µM; in assay [2], above 200 µM; in assay [3] it was around 200 µM; in assay [4], above 200 µM. Also, the “inhibition of thrombospondin binding” value in assay [1] was “inactive”.

Turning to `CC(C)[C@H](NC(=O)[C@H](CO)NC(=O)[C@@H](N)CO)C(=O)N[C@H](C(=O)N[C@@H](CS)C(=O)NCC(=O)O)[C@@H](C)O` [Peptide 237, SSVTCG] (H-SSVTCG-OH), the IC50 in assay [1] (setting [6]) came out at 58 µM; in assay [2], 30 µM; in assay [3], 100 µM; in assay [4], 85 µM. Also, in assay [1], the “inhibition of thrombospondin binding” value is on record as “very weak inhibitor”. In addition, the “fold less active than CSVTCG” value in assay [2] (thrombospondin binding to sulfatide) amounted to 2 fold.

On to `CC[C@H](C)[C@H](NC(=O)[C@@H](NC(=O)CNC(=O)[C@H](CC(=O)O)NC(=O)CNC(=O)[C@H](CS)NC(=O)[C@@H](NC(=O)[C@@H](N)C(C)C)[C@@H](C)O)C(C)C)C(=O)N[C@H](C(=O)N[C@@H](CCCNC(=N)N)C(=O)O)[C@@H](C)O` [Peptide 205, VTCGDGVITR] (H-VTCGDGVITR-OH), for which the IC50 in assay [1] (setting [6]), in assay [2], in assay [3] and in assay [4] was above 200 µM in each case.

Turning to `C[C@@H](NC(=O)CCS)C(=O)N[C@H](C)C(=O)N[C@H](Cc1c[nH]c2ccccc12)C(=O)N[C@H](Cc1c[nH]cn1)C(=O)N[C@H](CO)C(=O)N[C@H](Cc1c[nH]c2ccccc12)C(=O)NCCCCC(=O)N[C@H](C)C(=O)N[C@H](CCC(N)=O)C(=O)N[C@H](CCCCN)C(=O)N[C@H](C)C(=O)N[C@H](CCCNC(=N)N)C(=O)N[C@H](CCCCN)C(N)=O` [ri-amKRAKQUWSHWAAtp] ([Mpa][dA][dA][dW][dH][dS][dW][Ava][dA][dQ][dK][dA][dR][dK]-NH2), the IC50 in assay [1] (setting [7]) was 0.046 µM.

For `CC(C)[C@H](NC(=O)[C@H](CO)NC(=O)[C@@H](N)CS)C(=O)N[C@H](C(=O)O)[C@@H](C)O` [Peptide 234, CSVT] (H-CSVT-OH), the IC50 in assay [1] (setting [6]), in assay [2], in assay [3] and in assay [4] was above 200 µM each time. For the same molecule, the “inhibition of thrombospondin binding” value in assay [1] is “inactive”.

The values are drawn from patent US5770563A, “Heparin- and sulfatide binding peptides from the type I repeats of human thrombospondin and conjugates thereof” (The United States of America as represented by the …, priority 1995, dated 1998).
